Source: patent publication US11413278B2, “Compounds and methods for promoting stress resistance” (priority 2015, dated 2022)
“Also recorded” adds a separate entry of the source. Like-named read-outs stand apart in the source and are kept apart here.

Legend:
human PARP1 = molecular target: T1, human PARP1 (Homo sapiens, UniProt P09874); assay: PARP inhibitor assay (HT Fluorescent Homogeneous PARP Inhibition Assay Kit); assay type: biochemical; settings: score
T1 construct: purchased Trevigen
Summary of the method: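 Compounds (10 μM final) incubated 30 min, room temperature, dark, with human PARP1, nicotinamide adenine dinucleotide and activated DNA. Fluorescent signal generated by 1 hr cycling with diaphorase and resazurin, then reaction stopped.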

FOXO3 = assay: qPCR analysis of FOXO3-regulated genes; assay type: cell-based, human; settings: for fold induction at 10 µM: Homo sapiens; for K = Sestrin induction: score
Summary of the method: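 FOXO3 target-gene expression quantified by qPCR normalised to B2M, PPIA and GAPDH, in WI-38 cells after 24 h exposure to 10 μM compound. Some runs used cells first transfected 36 h with 10 nM FOXO3 or NRF2 siRNA and replated ~24 h before dosing.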

NRF2 = assay: qPCR analysis of NRF2-regulated genes; assay type: cell-based, human; settings: for fold induction at 10 µM: Homo sapiens
Summary of the method: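 Expression of HMOX1, NQO1, GCLC and GSTM1 measured by qPCR relative to B2M, PPIA and GAPDH. Cells were WI-38 fibroblasts exposed 24 hrs to 10 μM compound, with RNA and cDNA prepared via Cells-to-Ct. Where stated, cells were first transfected 36 hrs with FOXO3 or NRF2 siRNA at 10 nM.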

C. elegans = C. elegans lifespan assays (liquid and plate); assay type: in vivo, Caenorhabditis elegans; settings: for ILS at 60 µM / ILS at 66 µM: Caenorhabditis elegans; for O = Life span- extending scores in worms: score scale 0 to 2, 4 to 6 independent trials; for M = Lifespan-extending scores in worms: summary score
WI-38 cells = settings: for PI cell-death imaging without H2O2 (indicating potential toxicity): Assay 8(k), without H2O2, at 10 uM; for PI-positive dead cells under normal conditions: control 0.4±0.2%; for Percentage of propidium iodide-positive dead cells (no H2O2 stress treatment), at 10 uM: negative control 0.41% ± 0.23%
Protocol: WI-38 cells were seeded on 384-well plates for 24 hrs and then incubated with small molecules for 24 hrs. […] Images were collected on an INCell Analyzer 2000 (GE) and analyzed with the Developer software.

[1] = 24 h, Assay 10(m), at 10 uM, qPCR, read-out: Induction of FOXO3-regulated genes: SESN1 normalized fold-change
[2] = WI-38, 24 h, read-out: SESN1 expression
[3] = 10 μM, 24 hrs, WI-38 cells, qPCR, normalized to B2M, n = 4, read-out: SESN1 expression, normalized fold change (FOXO3-regulated gene)
[4] = WI-38 cells, 10 μM, 24 hrs, n=4, qPCR normalized by B2M, read-out: DDB1 Normalized fold change
[5] = WI-38 cells, 10 μM, 24 hrs, n=4, qPCR normalized by B2M, read-out: GADD45A Normalized fold change
[6] = WI-38 cells, 10 μM, 24 hrs, n=4, qPCR normalized by B2M, read-out: SESN1 Normalized fold change
[7] = fold change, qPCR, WI-38 cells, 10 μM, 24 hrs, read-out: Summary of effects on FOXO3-regulated genes: SESN1
[8] = qPCR, WI-38 cells, 10 μM, n=4, 24 hrs, normalized by B2M, read-out: CAT Normalized fold change
[9] = qPCR, WI-38 cells, 10 μM, n=4, 24 hrs, normalized by B2M, read-out: SOD2 Normalized fold change
[10] = qPCR, WI-38 cells, 10 μM, n=4, 24 hrs, normalized by B2M, read-out: TXNIP Normalized fold change
[11] = 24 h, Assay 12(o), at 10 uM, qPCR, read-out: Induction of NRF2-regulated genes: GCLC normalized fold-change
[12] = rounded fold change, WI-38 cells, 10 μM, 24 hrs, read-out: Summary of effects on NRF2-regulated genes: GCLC
[13] = 10 μM, 24 hrs, WI-38 cells, qPCR, normalized to B2M, n = 4, read-out: GCLC expression, normalized fold change (NRF2-regulated gene)
[14] = WI-38 cells, 10 μM, 24 hrs, n=4, qPCR normalized by B2M, read-out: GCLC Normalized fold change
[15] = WI-38 cells, 10 μM, 24 hrs, n=4, qPCR normalized by B2M, read-out: GSTM1 Normalized fold change
[16] = WI-38 cells, 10 μM, 24 hrs, n=4, qPCR normalized by B2M, read-out: HMOX1 Normalized fold change
[17] = WI-38 cells, 10 μM, 24 hrs, n=4, qPCR normalized by B2M, read-out: NQO1 Normalized fold change
[18] = in liquid, wild type, with FuDR, 1.0 × 10^9 bacteria/ml, read-out: relative change of mean lifespan vs control, Trial 1
[19] = in liquid, wild type, with FuDR, 2.5 × 10^9 bacteria/ml, read-out: relative change of mean lifespan vs control, Trial 2
[20] = on plate, CF512 temperature-sensitive sterile animals, without FuDR, 2.0 × 10^10 bacteria/ml, read-out: relative change of mean lifespan vs control, Trial 3
[21] = Assay 2(z), 1.0 × 10^9 bacteria/ml, wild type + FuDR (2012 July), read-out: Lifespan assay in liquid
[22] = Assay 3(aa), 2.5 × 10^9 bacteria/ml, wild type + FuDR, read-out: Lifespan assay in liquid
[23] = Assay 4(ab), 2.0 × 10^10 bacteria/ml, CF512 worms, no FuDR, read-out: Lifespan assay on plates

T1 sequence (P09874 whole entry): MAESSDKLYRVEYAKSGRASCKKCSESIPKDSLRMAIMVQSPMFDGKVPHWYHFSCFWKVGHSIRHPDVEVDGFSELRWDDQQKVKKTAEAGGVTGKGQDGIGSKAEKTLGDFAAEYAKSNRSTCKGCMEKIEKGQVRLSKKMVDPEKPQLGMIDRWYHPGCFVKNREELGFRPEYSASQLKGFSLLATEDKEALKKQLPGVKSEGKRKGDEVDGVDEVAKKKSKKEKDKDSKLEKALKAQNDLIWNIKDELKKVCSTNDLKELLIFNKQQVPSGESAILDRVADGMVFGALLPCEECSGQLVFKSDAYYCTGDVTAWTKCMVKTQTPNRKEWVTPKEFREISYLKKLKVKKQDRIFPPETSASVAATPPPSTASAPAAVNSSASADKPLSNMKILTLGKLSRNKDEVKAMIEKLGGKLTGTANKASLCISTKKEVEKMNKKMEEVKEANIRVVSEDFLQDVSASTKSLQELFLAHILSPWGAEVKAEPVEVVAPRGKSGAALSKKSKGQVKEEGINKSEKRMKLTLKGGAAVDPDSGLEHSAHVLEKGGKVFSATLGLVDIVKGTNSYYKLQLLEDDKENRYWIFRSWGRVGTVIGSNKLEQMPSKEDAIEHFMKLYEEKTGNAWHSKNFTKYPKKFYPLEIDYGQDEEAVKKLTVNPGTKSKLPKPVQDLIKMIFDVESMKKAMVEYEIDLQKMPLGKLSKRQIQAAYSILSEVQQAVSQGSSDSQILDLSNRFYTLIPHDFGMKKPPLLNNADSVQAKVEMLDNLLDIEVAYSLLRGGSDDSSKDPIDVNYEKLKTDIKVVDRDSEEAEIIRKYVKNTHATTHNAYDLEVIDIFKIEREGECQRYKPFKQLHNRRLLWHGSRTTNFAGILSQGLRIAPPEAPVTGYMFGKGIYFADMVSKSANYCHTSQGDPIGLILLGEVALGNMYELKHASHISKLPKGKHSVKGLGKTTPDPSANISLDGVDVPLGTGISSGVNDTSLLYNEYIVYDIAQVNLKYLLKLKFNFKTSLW

COC(=O)CCc1sc2c(c1[N+](=O)[O-])NC(=O)CCC2 [O20]
L = PARP inhibition (human PARP1): 0 | Induction of at least two of five FOXO3-regulated genes (SOD2, GADD45A, CAT, DDB1, TXNIP) (FOXO3; 10 μM, 24 hrs, WI-38): significant induction; also recorded: significant, induction | E = Potential FOXO3 Activation (FOXO3; 2-point score): 0 | fold induction at 10 µM (FOXO3; 24 h, Assay 10(m), at 10 uM, qPCR, read-out: Induction of FOXO3-regulated genes: CAT normalized fold-change): 1.35 | fold induction at 10 µM (FOXO3; 24 h, Assay 10(m), at 10 uM, qPCR, read-out: Induction of FOXO3-regulated genes: DDB1 normalized fold-change): 1.25 | fold induction at 10 µM (FOXO3; [1]): 1.73 | fold induction at 10 µM (FOXO3; [2]): > 1.5 | fold induction at 10 µM (FOXO3; 10 μM, 24 hrs, WI-38 cells, qPCR, normalized to B2M, n = 4, read-out: CAT expression, normalized fold change (FOXO3-regulated gene)): 1.35 | fold induction at 10 µM (FOXO3; 10 μM, 24 hrs, WI-38 cells, qPCR, normalized to B2M, n = 4, read-out: DDB1 expression, normalized fold change (FOXO3-regulated gene)): 1.25 | fold induction at 10 µM (FOXO3; [3]): 1.73 | fold induction at 10 µM (FOXO3; [4]): 1.25 | fold induction at 10 µM (FOXO3; [5]): 1.04 | fold induction at 10 µM (FOXO3; [6]): 1.73 | fold induction at 10 µM (FOXO3; fold change, qPCR, WI-38 cells, 10 μM, 24 hrs, read-out: Summary of effects on FOXO3-regulated genes: CAT): 1.35 | fold induction at 10 µM (FOXO3; fold change, qPCR, WI-38 cells, 10 μM, 24 hrs, read-out: Summary of effects on FOXO3-regulated genes: DDB1): 1.25 | fold induction at 10 µM (FOXO3; [7]): 1.73 | fold induction at 10 µM (FOXO3; [8]): 1.35 | fold induction at 10 µM (FOXO3; [9]): 1.09 | fold induction at 10 µM (FOXO3; [10]): 1.12 | K = Sestrin induction (FOXO3): 1 | E = Potential FOXO3 Activation (FOXO3; summary score): 0 | F = Potential NRF2 Activation (NRF2; 2-point score): 2 | Potential NRF2 Activation (>=2 target genes induced, by >=1.5-fold) (NRF2; Assay 13(p)): YES | fold induction at 10 µM (NRF2; [11]): 1.76 | fold induction at 10 µM (NRF2; 24 h, Assay 12(o), at 10 uM, qPCR, read-out: Induction of NRF2-regulated genes: NQO1 normalized fold-change): 2.49 | fold induction at 10 µM (NRF2; rounded fold change, WI-38 cells, 10 μM, 24 hrs (RP29 for Gr-4D), read-out: Summary of effects on NRF2-regulated genes: NQO1): 2.49 | fold induction at 10 µM (NRF2; [12]): 1.76 | fold induction at 10 µM (NRF2; 10 μM, 24 hrs, WI-38, read-out: Expression of at least two NRF2 target genes): > 1.5 | fold induction at 10 µM (NRF2; [13]): 1.76 | fold induction at 10 µM (NRF2; 10 μM, 24 hrs, WI-38 cells, qPCR, normalized to B2M, n = 4, read-out: NQO1 expression, normalized fold change (NRF2-regulated gene)): 2.49 | fold induction at 10 µM (NRF2; [14]): 1.76 | fold induction at 10 µM (NRF2; [15]): 1.36 | fold induction at 10 µM (NRF2; [16]): 0.937 | fold induction at 10 µM (NRF2; [17]): 2.49 | F = Potential NRF2 Activation (NRF2; summary score): 2 | ILS at 60 µM (C. elegans; [18]): 18.8% | ILS at 60 µM (C. elegans; [19]): 3.4% | ILS at 60 µM (C. elegans; [20]): 11.3% | ILS at 66 µM (C. elegans; [21]): 18.8% | ILS at 66 µM (C. elegans; [22]): 3.4% | ILS at 66 µM (C. elegans; [23]): 11.3% | O = Life span- extending scores in worms (C. elegans): 1 (1 for lifespan extension observed in 2 trials) | M = Lifespan-extending scores in worms (C. elegans): 1 (1 for lifespan extension observed in 2 trials) | PI cell-death imaging without H2O2 (indicating potential toxicity) (WI-38 cells): YES | PI-positive dead cells under normal conditions (WI-38 cells; WI-38, no H2O2): 0.7%±0.3% | Percentage of propidium iodide-positive dead cells (no H2O2 stress treatment), at 10 uM (WI-38 cells): 0.73% ± 0.25%,

COc1ccc(/C=C2\SC(=N)N(c3nccs3)C2=O)cc1 [O21]
L = PARP inhibition (human PARP1): 0 | E = Potential FOXO3 Activation (FOXO3; 2-point score): 0 | fold induction at 10 µM (FOXO3; [1]): 1.88 | fold induction at 10 µM (FOXO3; [2]): > 1.5 | fold induction at 10 µM (FOXO3; [3]): 1.88 | fold induction at 10 µM (FOXO3; [4]): 1.45 | fold induction at 10 µM (FOXO3; [5]): 2.06 | fold induction at 10 µM (FOXO3; [6]): 1.88 | fold induction at 10 µM (FOXO3; [7]): 1.88 | fold induction at 10 µM (FOXO3; [8]): 1.3 | fold induction at 10 µM (FOXO3; [9]): 1.12 | fold induction at 10 µM (FOXO3; [10]): 0.9 | K = Sestrin induction (FOXO3): 1 | E = Potential FOXO3 Activation (FOXO3; summary score): 0 | F = Potential NRF2 Activation (NRF2; 2-point score): 0 | fold induction at 10 µM (NRF2; [11]): 0.51 | fold induction at 10 µM (NRF2; 24 h, Assay 12(o), at 10 uM, qPCR, read-out: Induction of NRF2-regulated genes: GSTM1 normalized fold-change): 1.25 | fold induction at 10 µM (NRF2; 24 h, Assay 12(o), at 10 uM, qPCR, read-out: Induction of NRF2-regulated genes: HMOX1 normalized fold-change): 3.02 | fold induction at 10 µM (NRF2; rounded fold change, WI-38 cells, 10 μM, 24 hrs (RP11 for Gr-1D, RP29 for Gr-4D), read-out: Summary of effects on NRF2-regulated genes: HMOX1): 3.02 | fold induction at 10 µM (NRF2; rounded fold change, WI-38 cells, 10 μM, 24 hrs (RP29 for Gr-4D), read-out: Summary of effects on NRF2-regulated genes: GSTM1): 1.25 | fold induction at 10 µM (NRF2; [12]): 0.51 | fold induction at 10 µM (NRF2; [13]): 0.51 | fold induction at 10 µM (NRF2; 10 μM, 24 hrs, WI-38 cells, qPCR, normalized to B2M, n = 4, read-out: GSTM1 expression, normalized fold change (NRF2-regulated gene)): 1.25 | fold induction at 10 µM (NRF2; 10 μM, 24 hrs, WI-38 cells, qPCR, normalized to B2M, n = 4, read-out: HMOX1 expression, normalized fold change (NRF2-regulated gene)): 3.02 | fold induction at 10 µM (NRF2; [14]): 0.512 | fold induction at 10 µM (NRF2; [15]): 1.25 | fold induction at 10 µM (NRF2; [16]): 3.02 | fold induction at 10 µM (NRF2; [17]): 0.836 | F = Potential NRF2 Activation (NRF2; summary score): 0 | ILS at 60 µM (C. elegans; [18]): 7.9% | ILS at 60 µM (C. elegans; [19]): -0.5% | ILS at 60 µM (C. elegans; [20]): 12.2% | ILS at 66 µM (C. elegans; [21]): 7.9% | ILS at 66 µM (C. elegans; [22]): -0.5% | ILS at 66 µM (C. elegans; [23]): 12.2% | O = Life span- extending scores in worms (C. elegans): 0 | M = Lifespan-extending scores in worms (C. elegans): 0 | PI cell-death imaging without H2O2 (indicating potential toxicity) (WI-38 cells): YES | Percentage of propidium iodide-positive (dead) cells under normal conditions (qualitative) (WI-38 cells; WI-38, no H2O2): increased the percentage | PI-positive dead cells under normal conditions (WI-38 cells; WI-38, no H2O2): 1.1±0.4% | Percentage of propidium iodide-positive dead cells (no H2O2 stress treatment), at 10 uM (WI-38 cells): 1.09% ± 0.39%,
